From patent publication US11306080B2, “Crystalline form of a BACE inhibitor, compositions, and use” (Merck Sharp & Dohme Corp., priority 2017, dated 2022) come the findings set out here.

Entries after “also recorded” stand apart in the source; their conditions may differ.

Holding throughout (format): physicochemical
Data set [1] in a line: 4 week open dish accelerated chemical stability of 12 mg tablets, analyzed using HPLC. The conditions noted are these: 40° C./75% RH. The method, then: To assess the chemical stability of Crystalline Form II of verubecestat in the tablet formulation, a 4 week open dish accelerated stability experiment was performed at a controlled temperature and humidity. Identical measurements were made to Crystalline Form I of verubecestat, which Form I is described in WO2016025364 for comparison. […] At the end of two weeks and of four weeks, tablets were analyzed using HPLC. The data obtained are reported in the following table, where “Hyd1” and “Hyd2” indicate observed degradation product: […]

Data set [2] can be described thus: BCS (Biopharmaceutics Classification System) designation. The conditions noted are these: listed as Crystalline Form II of Verubecestat.
A short description of data set [3]: Thermodynamic stability by competitive slurry experiments in various solvent systems, resultant form by PXRD. The conditions noted are these: slurried in various solvents for an extended period of time at a controlled temperature. The method, then:
The thermodynamic stability of Crystalline Form II of Verubecestat was assessed using competitive slurry experiments in various solvent systems. Crystalline Form I of Verubecestat, obtained using the procedures set out in WO2016025364, and Crystalline Form II of verubecestat material obtained as described above were slurried in various solvents for an extended period of time and at a controlled temperature. At the end of the experiments, the solvent was removed and the remaining crystalline material were evaluated using Powder X-ray Diffraction (PXRD) to confirm the resultant form.

As for `CN1C(N)=N[C@](C)(c2cc(NC(=O)c3ccc(F)cn3)ccc2F)CS1(=O)=O` [Crystalline Form II, N-[3-[(5R)-3-amino-5,6-dihydro-2,5-dimethyl-1,1-dioxido-2H-1,2,4-thiadiazin-5-yl]-4-fluorophenyl]-5-fluoro-2-pyridinecarboxamide], the “Assay (% LC)” value in data set [1] (2 weeks) is reported as 104.6 % LC. In addition, the “Assay (% LC)” value in data set [1] (4 weeks) is on record as 102.4 % LC. In addition, in data set [1] (time point 0), the “Assay (% LC)” value stood at 104.3 % LC, the “Degradation Product (%) Hyd1” value is “— (“—”means not more than 0.05%)”, the “Degradation Product (%) Hyd2” value is “— (“—”means not more than 0.05%)” and the “Degradation Product (%) Total” value was “— (“—”means not more than 0.05%)”. Besides, in data set [2], the BCS class entry is “Class I; also recorded: Class 1”. Also, the “Form remaining after competitive slurry of Form I and Form II (thermodynamic stability)” value in data set [3] is on record as “the only form remaining”.
Consider `CN1C(=N)N[C@](C)(c2cc(NC(=O)c3ccc(F)cn3)ccc2F)CS1(=O)=O` [Crystalline Form I, verubecestat, reference compound], for which, in data set [1] (2 weeks), the “Assay (% LC)” value was 98.5 % LC. Moreover, the “Assay (% LC)” value in data set [1] (4 weeks) is given as 97.4 % LC. Besides, in data set [1] (time point 0), the “Assay (% LC)” value stood at 98.5 % LC, the “Degradation Product (%) Hyd1” value was “— (“—”means not more than 0.05%)”, the “Degradation Product (%) Hyd2” value is on record as “— (“—”means not more than 0.05%)” and the “Degradation Product (%) Total” value is given as “— (“—”means not more than 0.05%)”.
